Results taken from ChEMBL document CHEMBL5465560, “Selectivity Literature for EUbOPEN Chemogenomic Library” (2024).

Columns and labels:
[1] = molecular target: Protein arginine N-methyltransferase 3 (Homo sapiens, UniProt O60678); test: Selectivity interaction (Scintillation proximity assays) EUB0000230b PRMT3
[2] = molecular target: Casein kinase II subunit alpha (Homo sapiens, UniProt P68400); test: Selectivity interaction (KinomeScan (DiscoverX)) EUB0000045b CSNK2A1
[3] = molecular target: Wee1-like protein kinase 2 (Homo sapiens) (UniProt P0C1S8); test: Selectivity interaction (KinomeScan (DiscoverX)) EUB0000045b WEE2
[4] = molecular target: T1, Bone morphogenetic protein receptor type-2 (Homo sapiens) (UniProt Q13873); test: Selectivity interaction (KinomeScan (DiscoverX)) EUB0001079a BMPR2; conditions: at 1 µM
T1 sequence (whole entry): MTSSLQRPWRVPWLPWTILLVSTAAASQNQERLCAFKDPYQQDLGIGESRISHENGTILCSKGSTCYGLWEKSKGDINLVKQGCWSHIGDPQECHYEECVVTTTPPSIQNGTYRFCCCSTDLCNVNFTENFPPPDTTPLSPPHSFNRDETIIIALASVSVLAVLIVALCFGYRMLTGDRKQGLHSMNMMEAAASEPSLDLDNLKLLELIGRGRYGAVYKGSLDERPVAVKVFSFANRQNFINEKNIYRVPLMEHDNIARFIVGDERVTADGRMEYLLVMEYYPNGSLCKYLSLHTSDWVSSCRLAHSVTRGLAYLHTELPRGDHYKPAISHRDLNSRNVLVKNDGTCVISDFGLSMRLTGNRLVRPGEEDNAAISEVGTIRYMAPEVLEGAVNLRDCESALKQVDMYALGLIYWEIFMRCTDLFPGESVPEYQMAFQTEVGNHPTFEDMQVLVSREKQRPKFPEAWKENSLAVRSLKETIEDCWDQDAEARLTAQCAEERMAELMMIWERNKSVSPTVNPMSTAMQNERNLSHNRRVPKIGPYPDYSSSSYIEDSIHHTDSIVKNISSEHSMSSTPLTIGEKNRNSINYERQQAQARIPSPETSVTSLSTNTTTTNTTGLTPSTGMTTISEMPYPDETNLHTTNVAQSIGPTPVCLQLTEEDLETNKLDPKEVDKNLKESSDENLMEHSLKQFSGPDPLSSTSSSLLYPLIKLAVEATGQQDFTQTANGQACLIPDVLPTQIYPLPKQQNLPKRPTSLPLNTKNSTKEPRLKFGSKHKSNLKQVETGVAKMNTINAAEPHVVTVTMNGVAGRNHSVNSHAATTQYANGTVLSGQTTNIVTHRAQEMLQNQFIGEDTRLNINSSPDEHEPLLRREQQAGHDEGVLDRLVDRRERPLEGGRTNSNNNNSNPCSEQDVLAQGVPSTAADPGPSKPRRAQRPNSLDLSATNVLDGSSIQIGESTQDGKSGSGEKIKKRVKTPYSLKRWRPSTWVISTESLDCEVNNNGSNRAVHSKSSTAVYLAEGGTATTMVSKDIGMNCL

[5] = molecular target: Histone-lysine N-methyltransferase, H3 lysine-36 specific (Homo sapiens) (UniProt Q96L73); test: Selectivity interaction (Transferase panel (protein, RNA, and DNA methyltransferases. and EP300 (acetyltransferase))) EUB0000270b NSD1
[6] = molecular target: Dual specificity protein kinase CLK1 (Homo sapiens, UniProt P49759); test: Selectivity interaction (KinomeScan (DiscoverX)) EUB0000618a CLK1; conditions: at 10 µM
[7] = molecular target: Casein kinase I isoform delta (Homo sapiens, UniProt P48730); test: Selectivity interaction (Kinase panel (Invitrogen)) EUB0000639a CSNK1D; conditions: at 200 nM
[8] = system: Tyrosine-protein kinase ABL1 (Homo sapiens), P00519 [F317I]; test: Selectivity interaction (KinomeScan (DiscoverX)) EUB0000655a ABL1; conditions: at 10 µM
[9] = molecular target: T2, Homeodomain-interacting protein kinase 4 (Homo sapiens) (UniProt Q8NE63); test: Selectivity interaction (KinomeScan (DiscoverX)) EUB0000092b HIPK4; conditions: at 10 µM
T2 sequence (whole entry): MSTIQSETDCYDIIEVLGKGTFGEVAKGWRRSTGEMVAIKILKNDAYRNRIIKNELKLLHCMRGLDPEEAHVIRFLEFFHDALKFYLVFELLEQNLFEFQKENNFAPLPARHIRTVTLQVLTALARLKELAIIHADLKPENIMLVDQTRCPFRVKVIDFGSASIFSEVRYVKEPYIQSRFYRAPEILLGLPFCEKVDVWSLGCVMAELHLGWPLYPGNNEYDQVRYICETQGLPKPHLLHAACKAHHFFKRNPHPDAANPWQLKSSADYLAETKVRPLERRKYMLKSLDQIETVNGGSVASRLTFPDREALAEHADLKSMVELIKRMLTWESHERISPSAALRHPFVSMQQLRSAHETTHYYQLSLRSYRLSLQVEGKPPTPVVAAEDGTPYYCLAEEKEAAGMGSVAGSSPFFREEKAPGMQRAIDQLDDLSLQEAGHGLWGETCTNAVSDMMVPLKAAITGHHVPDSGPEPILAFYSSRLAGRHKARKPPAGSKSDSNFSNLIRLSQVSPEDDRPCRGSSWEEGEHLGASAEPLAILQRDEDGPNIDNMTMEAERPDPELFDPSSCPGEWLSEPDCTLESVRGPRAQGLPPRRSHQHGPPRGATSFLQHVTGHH

[10] = molecular target: T3, cGMP-dependent protein kinase 2 (Homo sapiens) (UniProt Q13237); test: Selectivity interaction (KinomeScan (DiscoverX)) EUB0000092b PRKG2; conditions: at 10 µM
T3 sequence (whole entry): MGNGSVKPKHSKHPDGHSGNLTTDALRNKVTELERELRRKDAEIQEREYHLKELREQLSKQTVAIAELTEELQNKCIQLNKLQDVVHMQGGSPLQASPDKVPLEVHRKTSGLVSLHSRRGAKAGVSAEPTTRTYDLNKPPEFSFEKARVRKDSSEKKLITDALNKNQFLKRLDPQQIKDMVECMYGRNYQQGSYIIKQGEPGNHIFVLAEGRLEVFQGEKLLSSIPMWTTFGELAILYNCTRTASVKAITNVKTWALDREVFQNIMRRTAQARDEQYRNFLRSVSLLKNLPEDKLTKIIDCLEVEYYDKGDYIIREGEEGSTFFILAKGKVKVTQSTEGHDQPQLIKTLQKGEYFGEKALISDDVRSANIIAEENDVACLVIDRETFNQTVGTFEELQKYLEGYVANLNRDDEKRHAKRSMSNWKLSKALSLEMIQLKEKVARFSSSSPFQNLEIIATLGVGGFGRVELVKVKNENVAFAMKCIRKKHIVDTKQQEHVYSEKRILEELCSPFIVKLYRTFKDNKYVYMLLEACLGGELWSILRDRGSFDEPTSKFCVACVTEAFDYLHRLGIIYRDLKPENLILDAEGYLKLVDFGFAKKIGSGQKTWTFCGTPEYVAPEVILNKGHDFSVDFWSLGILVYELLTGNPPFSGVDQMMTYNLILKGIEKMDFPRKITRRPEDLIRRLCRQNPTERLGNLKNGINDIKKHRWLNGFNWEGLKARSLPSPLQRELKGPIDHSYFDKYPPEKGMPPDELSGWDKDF

Histone-lysine N-methyltransferase, H3 lysine-36 specific (Homo sapiens), sequence (Q96L73 whole entry): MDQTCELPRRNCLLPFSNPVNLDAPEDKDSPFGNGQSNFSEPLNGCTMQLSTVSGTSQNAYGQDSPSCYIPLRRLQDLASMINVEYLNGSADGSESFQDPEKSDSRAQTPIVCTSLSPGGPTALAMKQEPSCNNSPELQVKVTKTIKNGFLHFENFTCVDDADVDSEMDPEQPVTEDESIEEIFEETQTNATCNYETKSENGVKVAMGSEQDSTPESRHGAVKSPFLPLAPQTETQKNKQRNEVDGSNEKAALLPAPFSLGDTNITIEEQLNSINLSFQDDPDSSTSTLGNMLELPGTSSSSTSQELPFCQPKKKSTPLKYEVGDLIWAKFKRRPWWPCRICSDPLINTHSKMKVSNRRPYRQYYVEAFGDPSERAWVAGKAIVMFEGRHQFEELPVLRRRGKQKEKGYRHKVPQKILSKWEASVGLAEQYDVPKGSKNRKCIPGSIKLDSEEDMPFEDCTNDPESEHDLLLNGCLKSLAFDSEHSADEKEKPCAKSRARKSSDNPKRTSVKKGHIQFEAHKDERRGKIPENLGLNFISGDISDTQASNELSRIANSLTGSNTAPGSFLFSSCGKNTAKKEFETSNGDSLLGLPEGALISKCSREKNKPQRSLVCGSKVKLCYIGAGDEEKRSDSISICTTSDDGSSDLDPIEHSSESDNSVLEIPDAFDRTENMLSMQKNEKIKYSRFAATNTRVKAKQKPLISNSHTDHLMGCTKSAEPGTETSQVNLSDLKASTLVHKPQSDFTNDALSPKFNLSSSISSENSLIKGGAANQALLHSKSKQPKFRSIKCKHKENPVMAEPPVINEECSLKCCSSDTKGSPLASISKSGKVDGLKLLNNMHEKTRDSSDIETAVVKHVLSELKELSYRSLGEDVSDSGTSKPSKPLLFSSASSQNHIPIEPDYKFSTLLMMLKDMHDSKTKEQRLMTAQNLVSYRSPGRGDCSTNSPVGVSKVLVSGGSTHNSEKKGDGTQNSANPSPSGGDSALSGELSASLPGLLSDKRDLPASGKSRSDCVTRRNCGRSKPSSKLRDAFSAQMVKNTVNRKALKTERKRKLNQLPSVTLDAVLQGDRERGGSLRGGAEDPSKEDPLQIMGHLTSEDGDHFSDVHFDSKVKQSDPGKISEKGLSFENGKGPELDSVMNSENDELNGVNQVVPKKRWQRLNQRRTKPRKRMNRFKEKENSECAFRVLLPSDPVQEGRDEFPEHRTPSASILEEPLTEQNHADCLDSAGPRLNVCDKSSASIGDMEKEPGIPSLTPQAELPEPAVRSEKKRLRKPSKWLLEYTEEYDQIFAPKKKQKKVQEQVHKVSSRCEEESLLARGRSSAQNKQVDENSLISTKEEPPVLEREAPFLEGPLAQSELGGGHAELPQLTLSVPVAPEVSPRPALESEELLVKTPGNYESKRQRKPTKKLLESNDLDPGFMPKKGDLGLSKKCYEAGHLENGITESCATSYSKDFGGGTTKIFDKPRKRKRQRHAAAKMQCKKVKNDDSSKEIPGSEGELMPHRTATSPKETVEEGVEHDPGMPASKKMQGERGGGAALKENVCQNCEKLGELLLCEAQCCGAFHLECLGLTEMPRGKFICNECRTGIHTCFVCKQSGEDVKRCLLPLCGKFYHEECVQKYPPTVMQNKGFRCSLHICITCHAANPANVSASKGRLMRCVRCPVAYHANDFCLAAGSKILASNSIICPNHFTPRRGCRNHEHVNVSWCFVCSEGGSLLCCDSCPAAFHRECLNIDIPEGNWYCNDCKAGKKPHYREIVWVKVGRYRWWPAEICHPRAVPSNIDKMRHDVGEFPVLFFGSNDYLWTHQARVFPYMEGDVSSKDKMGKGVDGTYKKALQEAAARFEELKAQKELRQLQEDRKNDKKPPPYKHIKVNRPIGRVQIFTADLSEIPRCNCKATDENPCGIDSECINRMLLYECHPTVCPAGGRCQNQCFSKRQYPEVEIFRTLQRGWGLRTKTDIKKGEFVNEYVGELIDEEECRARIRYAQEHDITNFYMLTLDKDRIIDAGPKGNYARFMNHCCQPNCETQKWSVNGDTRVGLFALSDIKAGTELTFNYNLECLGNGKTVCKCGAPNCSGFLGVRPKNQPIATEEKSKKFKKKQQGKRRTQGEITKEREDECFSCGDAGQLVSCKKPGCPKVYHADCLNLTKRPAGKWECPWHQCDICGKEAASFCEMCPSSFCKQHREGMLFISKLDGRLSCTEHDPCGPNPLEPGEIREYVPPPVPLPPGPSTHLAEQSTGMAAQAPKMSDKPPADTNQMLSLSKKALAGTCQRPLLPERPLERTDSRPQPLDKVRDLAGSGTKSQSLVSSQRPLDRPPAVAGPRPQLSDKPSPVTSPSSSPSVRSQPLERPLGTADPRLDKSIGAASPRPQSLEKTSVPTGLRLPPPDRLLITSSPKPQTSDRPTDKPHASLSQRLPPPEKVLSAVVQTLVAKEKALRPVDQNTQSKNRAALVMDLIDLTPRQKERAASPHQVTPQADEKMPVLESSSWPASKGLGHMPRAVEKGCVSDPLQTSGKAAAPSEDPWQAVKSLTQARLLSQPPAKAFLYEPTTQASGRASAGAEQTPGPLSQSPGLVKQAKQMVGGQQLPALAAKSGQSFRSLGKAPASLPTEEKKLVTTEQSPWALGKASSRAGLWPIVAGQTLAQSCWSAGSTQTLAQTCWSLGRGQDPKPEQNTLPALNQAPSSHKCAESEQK
Casein kinase II subunit alpha, sequence (P68400 whole entry, looked up): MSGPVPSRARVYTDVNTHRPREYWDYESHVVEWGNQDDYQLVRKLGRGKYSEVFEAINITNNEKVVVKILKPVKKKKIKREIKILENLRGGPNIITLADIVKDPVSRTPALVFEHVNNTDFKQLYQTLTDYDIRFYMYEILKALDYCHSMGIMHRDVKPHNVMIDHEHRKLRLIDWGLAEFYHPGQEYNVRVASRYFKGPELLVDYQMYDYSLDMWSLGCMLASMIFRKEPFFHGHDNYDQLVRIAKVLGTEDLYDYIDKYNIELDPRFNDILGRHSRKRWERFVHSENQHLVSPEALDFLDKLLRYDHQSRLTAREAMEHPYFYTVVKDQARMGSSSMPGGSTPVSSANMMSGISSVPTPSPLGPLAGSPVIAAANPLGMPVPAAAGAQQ
Wee1-like protein kinase 2 (Homo sapiens), sequence (P0C1S8 whole entry, looked up): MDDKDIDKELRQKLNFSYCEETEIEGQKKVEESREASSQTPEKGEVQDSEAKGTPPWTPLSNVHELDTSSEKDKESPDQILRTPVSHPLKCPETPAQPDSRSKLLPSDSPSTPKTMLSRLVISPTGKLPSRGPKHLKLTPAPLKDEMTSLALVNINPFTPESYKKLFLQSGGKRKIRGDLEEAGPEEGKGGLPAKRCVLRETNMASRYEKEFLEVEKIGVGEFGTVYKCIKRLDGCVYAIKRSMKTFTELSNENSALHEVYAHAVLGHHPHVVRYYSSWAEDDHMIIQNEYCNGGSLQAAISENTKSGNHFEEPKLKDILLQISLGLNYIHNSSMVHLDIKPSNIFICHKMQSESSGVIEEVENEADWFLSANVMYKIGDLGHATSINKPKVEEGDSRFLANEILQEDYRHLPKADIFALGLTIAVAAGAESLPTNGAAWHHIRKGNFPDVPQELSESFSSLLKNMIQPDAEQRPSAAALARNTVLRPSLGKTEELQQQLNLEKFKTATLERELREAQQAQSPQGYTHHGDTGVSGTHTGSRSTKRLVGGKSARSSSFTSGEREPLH
Protein arginine N-methyltransferase 3, sequence (O60678 whole entry): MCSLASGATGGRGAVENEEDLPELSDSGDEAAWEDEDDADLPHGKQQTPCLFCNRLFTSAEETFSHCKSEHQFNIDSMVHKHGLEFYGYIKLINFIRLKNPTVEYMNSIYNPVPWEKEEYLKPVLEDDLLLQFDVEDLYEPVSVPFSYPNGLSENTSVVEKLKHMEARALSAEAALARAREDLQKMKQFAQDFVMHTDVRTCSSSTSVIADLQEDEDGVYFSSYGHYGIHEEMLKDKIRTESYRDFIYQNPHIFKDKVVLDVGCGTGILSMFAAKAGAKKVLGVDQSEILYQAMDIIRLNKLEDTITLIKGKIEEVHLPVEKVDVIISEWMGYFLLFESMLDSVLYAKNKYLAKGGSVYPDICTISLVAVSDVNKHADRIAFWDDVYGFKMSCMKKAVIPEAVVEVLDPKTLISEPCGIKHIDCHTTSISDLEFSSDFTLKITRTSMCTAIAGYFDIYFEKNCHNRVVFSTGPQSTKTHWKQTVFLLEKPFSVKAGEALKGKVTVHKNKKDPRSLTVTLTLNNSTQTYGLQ
Dual specificity protein kinase CLK1, sequence (P49759 whole entry, looked up, canonical isoform): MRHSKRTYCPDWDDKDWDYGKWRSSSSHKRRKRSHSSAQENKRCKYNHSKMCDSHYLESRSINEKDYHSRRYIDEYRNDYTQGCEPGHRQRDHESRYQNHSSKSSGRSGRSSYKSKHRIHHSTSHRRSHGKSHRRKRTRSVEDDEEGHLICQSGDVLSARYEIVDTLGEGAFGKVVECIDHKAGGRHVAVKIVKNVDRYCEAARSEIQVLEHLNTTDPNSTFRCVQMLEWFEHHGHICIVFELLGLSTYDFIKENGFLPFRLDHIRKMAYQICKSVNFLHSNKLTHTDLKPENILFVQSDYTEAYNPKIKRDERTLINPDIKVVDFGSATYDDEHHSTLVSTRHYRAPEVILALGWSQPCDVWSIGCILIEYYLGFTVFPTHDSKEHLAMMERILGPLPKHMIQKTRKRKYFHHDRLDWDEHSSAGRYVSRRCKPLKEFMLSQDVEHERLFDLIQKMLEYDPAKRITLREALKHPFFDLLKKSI
Casein kinase I isoform delta, sequence (P48730 whole entry, looked up, canonical isoform): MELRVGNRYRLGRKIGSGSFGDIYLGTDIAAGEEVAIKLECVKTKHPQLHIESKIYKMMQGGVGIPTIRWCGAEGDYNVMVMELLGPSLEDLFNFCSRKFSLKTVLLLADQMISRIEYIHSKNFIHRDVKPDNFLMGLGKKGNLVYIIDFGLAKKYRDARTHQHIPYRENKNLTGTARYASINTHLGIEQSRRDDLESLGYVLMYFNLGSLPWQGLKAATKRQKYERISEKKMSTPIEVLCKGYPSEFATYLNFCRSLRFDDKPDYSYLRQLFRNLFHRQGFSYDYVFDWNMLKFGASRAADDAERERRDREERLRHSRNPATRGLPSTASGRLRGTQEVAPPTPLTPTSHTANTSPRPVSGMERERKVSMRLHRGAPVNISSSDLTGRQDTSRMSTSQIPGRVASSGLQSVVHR

CNCCN1CCC(c2cc(CN(C)C(=O)c3cccc(Oc4ccccc4)c3)ccn2)CC1
IC50 [1]: > 10 µM

C=CC(=O)Nc1cc(-n2c(=O)ccc3cnc4ccc(-c5ccc(NS(C)(=O)=O)cc5)cc4c32)ccc1C
% of control ([2]; at 1 µM): 84%
% of control ([2]; at 10 µM): 51%
% of control ([3]; at 1 µM): 66%
% of control ([3]; at 10 µM): 100%

Nc1cnc(N2CCc3cc(S(=O)(=O)Nc4c(F)cc(Cl)cc4F)cc(N4CCCC4=O)c32)nc1 [TP-020n]
% of control [4]: 100%

Cc1cc(CN)cc(C)c1-c1ncn(C)c1-c1cncn1C
% activity ([5]; at 1 µM): > 90%
% activity ([5]; at 10 µM): > 80%

O[C@H]1CC[C@H](Nc2ncc3nc(Nc4c(F)cc(F)cc4F)n([C@H]4CCOC4)c3n2)CC1
% of control [6]: 79%

CC[C@@H]1[C@H](F)C(=O)N[C@@H]1COc1nccc2cc(C(N)=O)c(OC)cc12 [ZIMLOVISERTIB]
% of inhibition [7]: 52.2%

CN(C)CCOc1ccc(-c2nc(-c3ccncc3)c(-c3ccc4c(c3)CC/C4=N\O)[nH]2)cc1
% of control [8]: 81%

CCC(=O)N1CCN(c2ccc(-n3c(=O)ccc4cnc5ccc(-c6cnc7ccccc7c6)cc5c43)cc2C(F)(F)F)CC1
% of control [9]: 4.6%
% of control [10]: 78%
